Source: article PMC7118210 (Frontiers in Pharmacology, 2020)
Values belong to the molecule of their own block, whether it stands above or below them.

Key:
[1] = Excretion in human urine and feces (mass balance); assay type: in vivo; conditions: for time within which excreted: humans
Method: All blood samples were transferred into heparin-treated centrifuge tubes and centrifuged for 10 min at 4,000 rpm and 4°C. All human urine samples were mixed and transferred (4 ml) into storage tubes. All biological samples were stored at −80°C.
The optimal volume and activity in unit volume of enzyme solution [0.2 M acetic acid/water solution: 0.2 M ammonium acetate/water solution, 15:35 (v/v)] were determined through a pretest of the enzyme (rat plasma, 10 μl, 10 U μl^-1; dog plasma, 10 μl, 10 U μl^-1; human plasma, 20 μl, 20 U μl^-1; human urine, 10 μl, 10 U μl^-1). […] To each fecal sample, 9-fold methanol-normal saline (2:1, v/v) was added, mixed (18,000 rpm, 15 min) by vortexing and centrifuged (10 min, 9,000 rpm, 4°C). […] Then, all plasma, urine, and fecal samples were extracted with ethyl acetate (rat plasma, 800 μl; dog plasma, 1,000 μl; human plasma, 3,000 μl; human urine, 3,000 μl; human feces, 3,000 μl) for at least 3 min by vortexing, centrifuged for 10 min at 3,900 rpm and 4°C; supernatants were transferred into centrifuge tubes and dried with N2. The solid material was dissolved with acetonitrile-water (1:1, v/v) and injected into the ultra high-performance liquid chromatography coupled with triple quadrupole mass spectrometry (UHPLC/MS/MS) system as described below.
The analysis of nonclinical and clinical samples was performed with a UHPLC/MS/MS system that consisted of a Shimadzu Nexera X2 ultra high-performance liquid chromatography (UHPLC) (Shimadzu Corp., Kyoto, Japan) coupled with an AB Sciex API4000 triple-quadrupole mass spectrometry (MS/MS) system (AB Sciex, Foster City, CA, USA) equipped with an electrospray ionization source and controlled by Analyst (v. 1.6.2) software. […] The mobile phase consisted of 0.1% formic acid (v/v) in water (A) and 0.1% formic acid in acetonitrile (B) using a linear gradient of 90% A (0–0.5 min), 90 to 60% A (0.5–1.5 min), 60% to 40% A (1.5–3.5 min), 40% to 10% A (3.5–4.5 min), 10% A (4.5–5.5 min), 10% to 90% A (5.5–6.0 min), and 90% A (6.0–7.5 min) for plasma; and 80% A (0–0.2 min), 80 to 64% A (0.2–2.0 min), 64% to 63% A (2.0–4.4 min), 63% to 0% A (4.4–4.5 min), 0% A (4.5–5.5 min), 0% to 90% A (5.5–5.6 min), 90% A (5.6–5.9 min), 90% to 35% A (5.9–6.0 min), 35% A (6.0–6.2 min), 35 to 80% A (6.2–6.3 min), and 80% A (6.3–7.5 min) for urine and feces. The injection volume was 10 μl with the flow rate of 0.3 ml min^-1 for plasma, and 0.4 ml min^-1 for urine and feces. The compounds were detected by multiple reaction monitoring in the negative ion electrospray mode. The electrospray source conditions were as follows: ion source gas1 30 psi, ion source gas2 60 psi, curtain gas 20 psi, collisionally activated dissociation (CAD) gas 8 psi, temperature 500°C, and ion spray voltage −4,500 V. Zero air was used for ion source gas1 and ion source gas2 and nitrogen for curtain gas and CAD gas.
Next, 9-fold normal saline, instead of ninefold methanol-normal saline (2:1, v/v), was added to maintain enzyme activity in the feces. […] These samples were maintained at 37°C for 12 h.

[2] = Multiple-dose pharmacokinetics in dogs; assay type: in vivo, Beagle dogs
Method: The optimal volume and activity in unit volume of enzyme solution [0.2 M acetic acid/water solution: 0.2 M ammonium acetate/water solution, 15:35 (v/v)] were determined through a pretest of the enzyme (rat plasma, 10 μl, 10 U μl^-1; dog plasma, 10 μl, 10 U μl^-1; human plasma, 20 μl, 20 U μl^-1; human urine, 10 μl, 10 U μl^-1). After enzyme incubation, 10 μl of IS solution was added to the plasma and urine samples (2 μg ml^-1 quercetin 3-β-D-glucoside for rat and dog plasma; 583 ng ml^-1 naringin-D4 and 160 ng ml^-1 naringenin-D4 for human plasma; and 9,710 ng ml^-1 naringin-D4 and 6,000 ng ml^-1 naringenin-D4 for human urine). To each fecal sample, 9-fold methanol-normal saline (2:1, v/v) was added, mixed (18,000 rpm, 15 min) by vortexing and centrifuged (10 min, 9,000 rpm, 4°C). Next, 10 μl IS solution (971 ng ml^-1 naringin-D4 and 600 ng ml^-1 naringenin-D4) was added to the supernatants of feces (200 μl) without enzyme incubation. […] The solid material was dissolved with acetonitrile-water (1:1, v/v) and injected into the ultra high-performance liquid chromatography coupled with triple quadrupole mass spectrometry (UHPLC/MS/MS) system as described below. The analysis of nonclinical and clinical samples was performed with a UHPLC/MS/MS system that consisted of a Shimadzu Nexera X2 ultra high-performance liquid chromatography (UHPLC) (Shimadzu Corp., Kyoto, Japan) coupled with an AB Sciex API4000 triple-quadrupole mass spectrometry (MS/MS) system (AB Sciex, Foster City, CA, USA) equipped with an electrospray ionization source and controlled by Analyst (v. 1.6.2) software. […] The injection volume was 10 μl with the flow rate of 0.3 ml min^-1 for plasma, and 0.4 ml min^-1 for urine and feces. The compounds were detected by multiple reaction monitoring in the negative ion electrospray mode. The electrospray source conditions were as follows: ion source gas1 30 psi, ion source gas2 60 psi, curtain gas 20 psi, collisionally activated dissociation (CAD) gas 8 psi, temperature 500°C, and ion spray voltage −4,500 V. Zero air was used for ion source gas1 and ion source gas2 and nitrogen for curtain gas and CAD gas. […] All pharmacokinetic and excretion parameters were expressed as mean ± standard deviation (SD). All mean and SD values were reported to three significant figures. The pharmacokinetic parameters were calculated using the Phoenix WinNonlin software (Version 6.4, Pharsight Corp., Cary, NC, USA) and compared using the Student's t-test (p < 0.05) in SPSS 18.0 (SPSS Inc., Chicago, IL, USA). […] For the multiple-dose studies, pharmacokinetic parameters included the mean plasma level at steady state, Tmax, t1/2, the percent fluctuation, and the accumulation index (Table 3). […] In addition, we compared the pharmacokinetic parameters obtained from males and females (Tables 4–6).

[3] = naringin 160 mg, three times a day, p.o., human
[4] = naringin 12.4 mg kg^-1 multiple dose, dog, female
[5] = naringin 12.4 mg kg^-1 multiple dose, dog, male
[6] = naringin 12.4 mg kg^-1 p.o. three times a day, multiple dose, dog
[7] = naringin 160 mg (high-fat diet) p.o., human

time within which excreted [1]: ≤ 48 h
cumulative excretion in feces, Naringenin [1, 3]: 1.83 ± 2.32 % of dose
cumulative excretion in urine, Naringenin [1, 3]: 28.3 ± 43.2 % of dose
accumulation in multiple-dose study ([2]; dog, in vivo): no significant accumulation
CavSS [2, 4]: 50.7 ± 16.1 ng/mL
CavSS [2, 5]: 49 ± 10.4 ng/mL
CavSS [2, 6]: 49.8 ± 12.2 ng/mL
Compound: O=C1C[C@@H](c2ccc(O)cc2)Oc2cc(O)cc(O)c21 [naringenin, Naringenin]

Compound: C[C@@H]1O[C@@H](O[C@H]2[C@H](Oc3cc(O)c4c(c3)O[C@H](c3ccc(O)cc3)CC4=O)O[C@H](CO)[C@@H](O)[C@@H]2O)[C@H](O)[C@H](O)[C@H]1O [naringin, Naringin]
time within which excreted [1]: ≤ 48 h
cumulative excretion in feces, Naringin ([1]; naringin 40 mg p.o., human): 0.122 ± 0.202 % of dose
cumulative excretion in urine, Naringin ([1]; naringin 40 mg p.o., human): 0.067 ± 0.039 % of dose
cumulative excretion in feces, Naringin ([1]; naringin 80 mg p.o., human): 0.023 ± 0.036 % of dose
cumulative excretion in urine, Naringin ([1]; naringin 80 mg p.o., human): 0.037 ± 0.013 % of dose
cumulative excretion in feces, Naringin [1, 7]: 9.85 ± 20.0 % of dose
cumulative excretion in urine, Naringin [1, 7]: 0.025 ± 0.008 % of dose
cumulative excretion in feces, Naringin ([1]; naringin 160 mg p.o., human): 0.016 ± 0.023 % of dose
cumulative excretion in urine, Naringin ([1]; naringin 160 mg p.o., human): 0.027 ± 0.014 % of dose
cumulative excretion in feces, Naringin [1, 3]: 0.563 ± 1.00 % of dose
cumulative excretion in urine, Naringin [1, 3]: 0.034 ± 0.014 % of dose
cumulative excretion in feces, Naringin ([1]; naringin 320 mg p.o., human): 0.126 ± 0.325 % of dose
cumulative excretion in urine, Naringin ([1]; naringin 320 mg p.o., human): 0.033 ± 0.026 % of dose
cumulative excretion in feces, Naringin ([1]; naringin 480 mg p.o., human): 0.023 ± 0.033 % of dose
cumulative excretion in urine, Naringin ([1]; naringin 480 mg p.o., human): 0.012 ± 0.004 % of dose
accumulation in multiple-dose study ([2]; dogs): no significant accumulation
CavSS [2, 4]: 22.1 ± 3.41 ng/mL
Fluctuation [2, 4]: 370 ± 119%
CavSS [2, 5]: 15.1 ± 2.53 ng/mL
Fluctuation [2, 5]: 242 ± 8.10%
CavSS [2, 6]: 18.6 ± 4.68 ng/mL
Fluctuation ([2]; naringin 12.4 mg kg^-1 p.o. three times a day, multiple dose, dog, (CmaxSS−CminSS)/CavSS×100%): 306 ± 103%
